Measurements from US9895331B2, “Prophylactic and/or therapeutic agent for radiation damage” (The University of Tokyo, priority 2012, dated 2018).

Columns and labels:
Type in all cases: in vivo, C57BL/6 mice
[1] = test system: mouse suffering from radiation damage; assay: Assessment test for hematopoiesis-promoting effect (body weight, blood cell count by flow cytometer; 4.0 Gy); conditions: 5-ALA hydrochloride 100 mg/kg
Text: Male 8-week-old C57BL/6 mice were purchased from Japan SLC, Inc. and mice that appeared healthy by visual inspection on the day of arrival were subjected to the test. On the day after arrival, based on the body weight, the mice were divided into three groups of eight mice per group by random sampling, and further, one group was divided into four mice per cage. Also, as an untreated group, one group of four mice was kept in one cage. The mice were allowed to feed on the basic feed MF manufactured by Oriental Yeast Co., Ltd. and tap water ad libitum and reared in a rearing room at a room temperature of 23 to 24° C., a humidity of 30 to 40%, and under 12 hours of fluorescent lamp lighting.
The mice were divided into four groups, including three groups a) to c), each receiving a different drug, and an untreated group, as shown below.
Group a); Non-5-ALA administration group
Group b); 5-ALA hydrochloride 100 mg/kg body weight administration group
Group c); 5-ALA hydrochloride 100 mg+SFC 157 mg/kg body weight administration group
Using Pantac HF350 (200 KV, 20 mA Filter: Cu 0.1 mm+Al 0.5 mm), the mice were collectively irradiated with a radiation dose of 4.0 Gy on day 0.
From two days before initiation of irradiation (day −2) to day 6, water was forcedly administered to the aforementioned group a), an aqueous solution of 5-ALA hydrochloride was forcedly administered to the aforementioned group b), and an aqueous solution of 5-ALA hydrochloride and SFC was forcedly administered to the aforementioned group c) every day in the stomach through a feeding tube.
Setting the day of irradiation at day 0, the body weight was measured two days before initiation of irradiation (day −2), and on day 0, day 3, and day 6.
The group of cells obtained from the bone marrow, spleen, and thymus were analyzed by a flow cytometer. As an index for identifying each cell, the markers shown in the above [Table 2] were each used.
(§1) The results of analyzing the group of cells obtained from the bone marrow, spleen, and thymus by a flow cytometer are shown in FIG. 6. The number of bone marrow cells was counted as a sum of B cells, T cells, polymorphonuclear leukocytes (neutrophils), monocytes, and Ery I to IV. The number of thymocytes was counted as a sum of the number of CD4SP, CD8SP, DN, and DP. The number of spleen cells was counted as a sum of B cells, T cells, polymorphonuclear leukocytes (neutrophils), monocytes, and Ery I to IV.

[2] = test system: mouse suffering from radiation damage; assay: Radiation damage-alleviating effect of 5-ALA in irradiated mice (survival rate, body weight, appearance); conditions: for body weight vs non-ALA administration group / body weight, p vs non-ALA administration group: eleven days after irradiation; for body weight vs non-ALA administration group / body weight, p vs non-ALA administration group / changes in appearance: total 8 Gy
Text: (§2) Male 8-week-old C57BL/6 mice were purchased from Japan SLC, Inc. and mice that appeared healthy by visual inspection on the day of arrival were subjected to the test. On the day after arrival, based on the body weight, the mice were divided into three groups of 10 mice per group by random sampling, and further, one group was divided into three, three, and four mice per cage. The mice were allowed to feed on the basic feed MF manufactured by Oriental Yeast Co., Ltd. and tap water ad libitum and reared in a rearing room at a room temperature of 23 to 24° C., a humidity of 30 to 40%, and under 12 hours of fluorescent lamp lighting.
The mice were divided into three groups of [1] to [3], each receiving a different drug, as shown below. Group; Non-5-ALA administration group (10 mice) Group; 5-ALA hydrochloride 10 mg/kg body weight administration group (10 mice) Group; 5-ALA hydrochloride 100 mg/kg body weight administration group (10 mice)
Using Pantac HF350 (200 KV, 20 mA Filter: Cu 0.1 mm+Al 0.5 mm), the mice were irradiated with 4 Gy of radiation twice at a 3-hour interval (a total of 8 Gy).
After initiation of irradiation, water was forcedly administered to the aforementioned group, and an aqueous solution of 5-ALA hydrochloride was forcedly administered to the aforementioned groups and [3] every day in the stomach through a feeding tube.
Setting the day of irradiation at day 0, survival up to day 21 was checked. A mouse that survived for 21 days was judged as alive. […] Also, when the death was confirmed in the morning hours, the death was judged to have occurred on the previous day.
At the time of confirmation of survival in (5) above, body weight was simultaneously measured.
During the measurement in (5) above, it was examined whether there was any change in appearance between the administration group and non-administration group.

[3] = test system: mouse suffering from radiation damage; assay: Test for studying the establishment of an assessment model (body weight, blood cell count by flow cytometer; 3.5, 4.0, 4.5 Gy)
Text: as §2, with “10” for “three”, “four” for “10”, “each” for “further, one”, “kept in one” for “divided into three, three, and four mice per”
The mice were divided into 10 groups, including nine groups of 1) to 9), each receiving a different drug and exposed to a different radiation dose, and an untreated group, as shown below.
Groups 1) to 3); Three non-5-ALA administration groups, each irradiated with 3.5 Gy, 4.0 Gy, or 4.5 Gy
Groups 4) to 6); Three 5-ALA hydrochloride 100 mg/kg body weight administration groups, each irradiated with 3.5 Gy, 4.0 Gy, or 4.5 Gy
Groups 7) to 9); Three 5-ALA hydrochloride 100 mg+SFC 157 mg/kg body weight administration groups, each irradiated with 3.5 Gy, 4.0 Gy, or 4.5 Gy […]
Setting the day of irradiation at day 0, the body weight was measured two days before initiation of irradiation (day −2), and on day 0, day 3, day 5, and day 7.
The group of cells obtained from the bone marrow, spleen, and thymus were analyzed by a flow cytometer. […]
as §1, with “4.” for “6.”

SMILES: NCC(=O)CCC(=O)O [ALA, 5-aminolevulinic acid]
- number of B cells among the bone marrow cells ([1]; bone marrow): tendency of improvement
- number of bone marrow TER119+ erythroid progenitor cells ([1]; bone marrow): tendency of improvement
- number of monocytes among the bone marrow cells ([1]; bone marrow): tendency of improvement
- number of B cells among the spleen cells ([1]; spleen): statistically significant improvement
- number of CD11b+ cells among the spleen cells ([1]; spleen): tendency of improvement
- number of polymorphonuclear leukocytes among the spleen cells ([1]; spleen): tendency of improvement
- number of the erythroid progenitor cell Ery IV among the spleen cells ([1]; spleen): improved with statistical significance
- spleen cell count ([1]; without or with SFC 157 mg/kg, day -2 to day 6, vs H2O control group): significant improvement
- number of T cells among the spleen cells ([1]; without or with SFC 157 mg/kg, spleen): tendency of improvement
- survival rate, p (Logrank method) vs non-ALA administration group ([2]; 10 mg/kg, 4 Gy twice (total 8 Gy), up to day 21): 0.161
- body weight vs non-ALA administration group ([2]; 10 mg/kg): significant difference
- body weight, p vs non-ALA administration group ([2]; 10 mg/kg): 0.03556
- changes in appearance ([2]; 10 mg/kg, vs non-ALA group): milder piloerection
- survival rate ([2]; 100 mg/kg daily intragastric after irradiation, 4 Gy twice (total 8 Gy), up to day 21, vs non-ALA group): significantly improved
- survival rate, p (Logrank method) vs non-ALA administration group ([2]; 100 mg/kg, 4 Gy twice (total 8 Gy), up to day 21): 0.0289
- body weight vs non-ALA administration group ([2]; 100 mg/kg): significant difference
- body weight, p vs non-ALA administration group ([2]; 100 mg/kg): 0.03456
- changes in appearance ([2]; 100 mg/kg, vs non-ALA group): milder piloerection
- other items of blood cell count (bone marrow, thymus, spleen; other doses and groups) ([3]; 3.5 to 4.5 Gy, vs H2O control group): no significant difference
- cell count in each organ (bone marrow, spleen, thymus) ([3]; 4.0 Gy, 5-ALA hydrochloride 100 mg/kg): stable improvement tendency
- spleen cell count ([3]; 4.0 Gy, 5-ALA hydrochloride 100 mg/kg, day -2 to day 6, vs H2O control group): significant improvement
